By EC50 is commonly meant the concentration giving half of the maximal effect.

One assay concerns 786-O-Hif-Luc cells (luciferase gene driven by multiple HIF responsive elements). The assay is described as follows: Luciferase Assay. It counts as cell-based. The note with it: 24 h, 786-O-Hif-Luc cells, about 24 hours; read-out: Mean Luciferease EC50. The protocol:
A pool of infected cells were then selected against 2 μg/mL of puromycin (P8833, Sigma) for 10 days followed by limited dilution to select single clones.
Each concentration was tested in triplicate. After about 24 hours, luciferase activity was determined using ONE-Glo Luciferase Assay Reagent (E6110, Promega) following the manufacturer's recommended procedure. EC50 were calculated by using Dotmatics software.
For the compound `O=C1c2c(S(=O)(=O)C(F)F)ccc(Oc3ccc(F)c(F)c3)c2CC1(F)F` [Compound 195, 7-((Difluoromethyl)sulfonyl)-4-(3,4-difluorophenoxy)-2,2-difluoro-2,3-dihydro-1H-inden-1-one], the EC50 was 2560 nM. On the same count and under the same terms, with `O=S(=O)(c1ccc(Oc2cc(F)cc(Cl)c2)c(Br)c1CNCc1ccccc1)C(F)(F)F` [Compound 110, N-Benzyl-1-(2-bromo-3-(3-chloro-5-fluorophenoxy)-6-((trifluoromethyl)sulfonyl)phenyl)methanamine] the figure was 6500 nM; with `N#Cc1cccc(Oc2ccc(S(=O)(=O)C(F)F)c(CO)c2Br)c1` [Compound 81, 3-(2-Bromo-4-((difluoromethyl)sulfonyl)-3-(hydroxymethyl)phenoxy)benzonitrile], 850 nM. The same measure, in the same setting: with `CS(=O)(=O)c1ccc(Oc2cc(F)cc(Cl)c2)c(C(F)F)c1C#N` [Compound 92, 3-(3-Chloro-5-fluorophenoxy)-2-(difluoromethyl)-6-(methylsulfonyl)benzonitrile] the figure was 490 nM; with `O=S(=O)(c1ccc(Oc2cc(F)cc(Cl)c2)c(Cl)c1CNCCF)C(F)(F)F` [Compound 114, N-(2-Chloro-3-(3-chloro-5-fluorophenoxy)-6-((trifluoromethyl)sulfonyl)benzyl)-2-fluoroethan-1-amine], 9000 nM.

`N#Cc1cc(F)cc(Oc2ccc(S(=O)(=O)CCl)c3c2CC(F)(F)[C@H]3O)c1` [Compound 215, (S)-3-((7-((Chloromethyl)sulfonyl)-2,2-difluoro-1-hydroxy-2,3-dihydro-1H-inden-4-yl)oxy)-5-fluorobenzonitrile]: the EC50 was 22 nM. On the same count and under the same terms, with `CS(=O)(=O)c1ccc(Oc2cc(C#N)cc(C(F)F)c2)c2c1C(O)CC2` (stereo not shown) [Compound 249, 3-(Difluoromethyl)-5-((1-hydroxy-7-(methylsulfonyl)-2,3-dihydro-1H-inden-4-yl)oxy)benzonitrile] the figure was 1470 nM. As to `Cc1c(S(=O)(=O)C(F)F)ccc(Oc2cc(F)cc(Cl)c2)c1C#N` [Compound 32, 6-(3-Chloro-5-fluorophenoxy)-3-((difluoromethyl)sulfonyl)-2-methylbenzonitrile], the EC50 stood at 1900 nM. The same measure, in the same setting: to `O=S(=O)(c1ccc(Oc2cc(F)cc(F)c2)c2c1CCC2)C(F)F` [Compound 20, 4-((Difluoromethyl)sulfonyl)-7-(3,5-difluorophenoxy)-2,3-dihydro-1H-indene] belongs 1910 nM.

For the compound `CS(=O)(=O)c1ccc(Oc2cncc(C#N)c2)c2c1[C@H](O)[C@H](F)C2` [Compound 313, 5-(((1S,2R)-2-fluoro-1-hydroxy-7-(methylsulfonyl)-2,3-dihydro-1H-inden-4-yl)oxy)nicotinonitrile], the half-maximal effective concentration (EC50) is 1100 nM. Still for that read-out and setting: to `N#Cc1cc(F)cc(Oc2ccc(S(=O)(=O)C(F)F)c(C#N)c2Cl)c1` [Compound 39, 2-Chloro-3-(3-cyano-5-fluorophenoxy)-6-((difluoromethyl)sulfonyl)benzonitrile] belongs 600 nM; to `O=Cc1c(S(=O)(=O)C(F)(F)F)ccc(Oc2cc(F)cc(Cl)c2)c1Cl` [Compound 112, 2-Chloro-3-(3-chloro-5-fluorophenoxy)-6-((trifluoromethyl)sulfonyl)benzaldehyde], 340 nM; to `CS(=O)(=O)c1ccc(Oc2cncc(Br)c2)c2c1[C@H](O)C(F)(F)C2` [Compound 324, (S)-4-((5-Bromopyridin-3-yl)oxy)-2,2-difluoro-7-(methylsulfonyl)-2,3-dihydro-1H-inden-1-ol], 480 nM. The same measure, in the same setting: with `O=S(=O)(c1ccc(Oc2ccc(F)c(Cl)c2)c2c1[C@H](O)CC2)C(F)F` [Compound 157, (1R)-4-(3-Chloro-4-fluoro-phenoxy)-7-(difluoromethylsulfonyl)indan-1-ol] the figure was 2500 nM. On the same count and under the same terms, to `O=S(=O)(c1ccc(Oc2cc(F)cc(F)c2)c(Cl)c1CO)C(F)F` [Compound 168, (2-Chloro-6-((difluoromethyl)sulfonyl)-3-(3,5-difluorophenoxy)phenyl)methanol] belongs 310 nM; to `N#Cc1cc(F)cc(Oc2ccc(S(=O)(=O)C(F)(F)F)c(C#N)c2Br)c1` [Compound 100, 2-Bromo-3-(3-cyano-5-fluorophenoxy)-6-((trifluoromethyl)sulfonyl)benzonitrile], 7600 nM.

For `N#Cc1cccc(Oc2ccc(S(=O)(=O)C(F)(F)F)cc2Br)c1` [Compound 117, 3-(2-Bromo-4-((trifluoromethyl)sulfonyl)phenoxy)benzonitrile], the EC50 was found to be 3000 nM. The same measure, in the same setting: with `N#CN=S(=O)(CF)c1ccc(Oc2cc(F)cc(C#N)c2)c2c1[C@H](O)C(F)(F)C2` (single isomer, unassigned) [Compound 285] the figure was 100 nM; with `O=S(=O)(CF)c1ccc(Oc2cccc3sccc23)c2c1C(O)C(F)(F)C2` (stereo not shown) [Compound 242, 4-(Benzo[b]thiophen-4-yloxy)-2,2-difluoro-7-((fluoromethyl)sulfonyl)-2,3-dihydro-1H-inden-1-ol], 510 nM; with `Cc1c(Oc2cc(F)cc(C#N)c2)ccc(S(=O)(=O)C(F)(F)F)c1C=O` [Compound 145, 3-Fluoro-5-[3-formyl-2-methyl-4-(trifluoromethylsulfonyl)phenoxy]benzonitrile], 430 nM. On the same count and under the same terms, to `CS(=N)(=O)c1ccc(Oc2cc(F)cc(F)c2)c2c1C(O)CC2` (stereo not shown) [Compound 190, (7-(3,5-Difluorophenoxy)-3-hydroxy-2,3-dihydro-1H-inden-4-yl)(imino)(methyl)-λ^6-sulfanone] belongs 12700 nM; to `Cc1c(S(C)(=O)=O)ccc(Oc2cc(F)cc(Cl)c2)c1C#N` [Compound 50, 6-(3-Chloro-5-fluorophenoxy)-2-methyl-3-(methylsulfonyl)benzonitrile], 1600 nM.

Consider `N#Cc1cncc(Oc2ccc(S(=O)(=O)C(F)F)c3c2CC(F)(F)[C@H]3O)c1` [Compound 27, (S)-5-((7-((Difluoromethyl)sulfonyl)-2,2-difluoro-1-hydroxy-2,3-dihydro-1H-inden-4-yl)oxy)nicotinonitrile], for which the EC50 was found to be 160 nM. On the same count and under the same terms, to `N#Cc1cc(F)cc(Oc2ccc(S(=O)(=O)CCO)c3c2CC(F)(F)C3O)c1` (stereo not shown) [Compound 250, 3-((2,2-Difluoro-1-hydroxy-7-((2-hydroxyethyl)sulfonyl)-2,3-dihydro-1H-inden-4-yl)oxy)-5-fluorobenzonitrile] belongs 2950 nM; to `O=S(=O)(c1ccc(Oc2c(F)ccc3[nH]ncc23)c2c1C(O)C(F)(F)C2)C(F)(F)F` (stereo not shown) [Compound 244, 2,2-Difluoro-4-((5-fluoro-1H-indazol-4-yl)oxy)-7-((trifluoromethyl)sulfonyl)-2,3-dihydro-1H-inden-1-ol], 1710 nM; to `N#Cc1cncc(Oc2ccc(S(N)(=O)=O)c3c2CC(F)(F)[C@H]3O)c1` [Compound 253, (S)-7-((5-Cyanopyridin-3-yl)oxy)-2,2-difluoro-3-hydroxy-2,3-dihydro-1H-indene-4-sulfonamide], 1080 nM.

As to `Cc1c(Oc2cc(F)cc(C#N)c2)ccc(S(=O)(=O)C(F)(F)F)c1Cl` [Compound 144, 3-Fluoro-5-[3-chloro-2-methyl-4-(trifluoromethylsulfonyl)phenoxy]benzonitrile], the EC50 amounted to 390 nM. With `O=S(=O)(c1ccc(Oc2ccc(F)c3[nH]ncc23)c2c1C(O)C(F)(F)C2)C(F)(F)F` (stereo not shown) [Compound 241, 2,2-Difluoro-4-((7-fluoro-1H-indazol-4-yl)oxy)-7-((trifluoromethyl)sulfonyl)-2,3-dihydro-1H-inden-1-ol], the EC50 was determined as 140 nM. On the same count and under the same terms, to `CS(=O)(=O)c1ccc(Oc2cc(F)cc(Cl)c2)c(C(F)F)c1CO` [Compound 54, (3-(3-Chloro-5-fluorophenoxy)-2-(difluoromethyl)-6-(methylsulfonyl)phenyl)methanol] belongs 350 nM; to `N#Cc1cc(F)cc(Oc2ccc(S(=N)(=O)C(F)(F)F)c3c2CCC3O)c1` (stereo not drawn) [Compound 258, 3-Fluoro-5-((1-hydroxy-7-(S-(trifluoromethyl)sulfonimidoyl)-2,3-dihydro-1H-inden-4-yl)oxy)benzonitrile], 2100 nM; to `Cc1cc(S(=O)(=O)C(F)F)ccc1Oc1cc(F)cc(C#N)c1` [Compound 136, 3-[4-(Difluoromethylsulfonyl)-2-methyl-phenoxy]-5-fluoro-benzonitrile], 2400 nM. For the compound `O=S(=O)(c1ccc(Oc2cc(F)cc(F)c2)c2c1CC(O)C2)C(F)F` (stereo not shown) [Compound 22, 4-((Difluoromethyl)sulfonyl)-7-(3,5-difluorophenoxy)-2,3-dihydro-1H-inden-2-ol], the concentration for a half-maximal effect (EC50) was 1290 nM.

Still in this assay, the particulars now being: 24 h, read-out: Mean Luciferease EC50.
For the compound `CS(=O)(=O)c1ccc(Oc2cc(F)cc(C#N)c2)c2c1[C@H](N)C(F)(F)C2` [Compound 165, 3-[(1S)-1-Amino-2,2-difluoro-7-methylsulfonyl-indan-4-yl]oxy-5-fluoro-benzonitrile], the concentration for a half-maximal effect (EC50) came out at 240 nM. Still for that read-out and setting: to `N#Cc1cc(F)cc(Oc2ccc(S(=O)(=O)C(F)F)c3c2CC[C@H]3O)c1` [Compound 155, 3-[(1R)-7-(difluoromethylsulfonyl)-1-hydroxy-indan-4-yl]oxy-5-fluoro-benzonitrile] belongs 130 nM; to `N#Cc1cc(F)cc(Oc2ccc(S(=O)(=O)C(F)(F)F)c3c2CC[C@H]3O)c1` [Compound 57, (R)-3-Fluoro-5-((1-hydroxy-7-((trifluoromethyl)sulfonyl)-2,3-dihydro-1H-inden-4-yl)oxy)benzonitrile], 110 nM.

On to `[2H]C([2H])([2H])S(=O)(=O)c1ccc(Oc2cc(F)cc(C#N)c2)c2c1[C@]([2H])(O)C(F)(F)C2` [Compound 229], for which the half-maximal effective concentration (EC50) was 24 nM. As to `CS(=O)(=O)c1ccc(Oc2cc(F)cc(C#N)c2)c2c1[C@H](O)[C@H](F)C2` [Compound 231, 3-Fluoro-5-(((1S,2R)-2-fluoro-1-hydroxy-7-(methylsulfonyl)-2,3-dihydro-1H-inden-4-yl)oxy)benzonitrile], the EC50 was 36 nM.

The values above are taken from patent US10597366B2, “Aryl ethers and uses thereof” (Peloton Therapeutics, Inc., priority 2013, dated 2020).
